What was measured:
[1] = system: 786-O RCC tumor xenograft; assay: Multiplexed immunohistochemistry analysis of tumors; format: in vivo, mouse; conditions: 786-O xenograft tumors
[2] = system: 786-O RCC tumor xenograft; format: in vivo; conditions: 786-O xenograft; sunitinib 50 mg/kg, Ex82 30mg/kg daily by gavage
[3] = system: 786-O RCC tumor xenograft; assay: Arterial spin labeled MRI of tumor blood flow; format: in vivo, mouse; conditions: day 26 +/- 4 days
[4] = system: monolayer of endothelial cells; assay: Transendothelial electrical impedance assay; format: cell-based; conditions: S1P at 10 nM

| Structure (SMILES) | S1P1 expression in tumors [1] | percent area of TUNEL [1] [%] | percent area of tumor vessels (CD34) [1] [%] | tumor growth [2] | tumor blood flow (ASL MRI) [3] | electrical impedance of endothelial monolayer [4] |
| --- | --- | --- | --- | --- | --- | --- |
| CCN(CC)CCNC(=O)c1c(C)[nH]c(/C=C2\C(=O)Nc3ccc(F)cc32)c1C [sunitinib] | significantly reduced | 10.9 | 7.2 | slowed tumor growth | lower tumor blood flow than vehicle |  |
| CCCCCCCCCCCCC/C=C/[C@@H](O)[C@@H](N)COP(=O)(O)O [S1P, sphingosine-1-phosphate] |  |  |  |  |  | strongly increases electrical impedance |
